Structures are written as SMILES.

Experiment [1] addresses Muscarinic acetylcholine receptor M3 (Homo sapiens) (UniProt P20309). The conditions noted are these: Compound concentration 10.0 uM.
The target of experiment [2] is Mu-type opioid receptor (Homo sapiens) (UniProt P35372). The conditions noted are these: Compound concentration 10.0 uM.
Experiment [3] has as its target Histamine H1 receptor (Homo sapiens) (UniProt P35367). The conditions noted are these: Compound concentration 10.0 uM.
Experiment [4] has as its target Sigma intracellular receptor 2 (Homo sapiens) (UniProt Q5BJF2). The conditions noted are these: Compound concentration 10.0 uM.
For experiment [5], the target named is Kappa-type opioid receptor (Homo sapiens) (UniProt P41145). The conditions noted are these: Compound concentration 10.0 uM.
Kappa-type opioid receptor (Homo sapiens), sequence (P41145 whole entry): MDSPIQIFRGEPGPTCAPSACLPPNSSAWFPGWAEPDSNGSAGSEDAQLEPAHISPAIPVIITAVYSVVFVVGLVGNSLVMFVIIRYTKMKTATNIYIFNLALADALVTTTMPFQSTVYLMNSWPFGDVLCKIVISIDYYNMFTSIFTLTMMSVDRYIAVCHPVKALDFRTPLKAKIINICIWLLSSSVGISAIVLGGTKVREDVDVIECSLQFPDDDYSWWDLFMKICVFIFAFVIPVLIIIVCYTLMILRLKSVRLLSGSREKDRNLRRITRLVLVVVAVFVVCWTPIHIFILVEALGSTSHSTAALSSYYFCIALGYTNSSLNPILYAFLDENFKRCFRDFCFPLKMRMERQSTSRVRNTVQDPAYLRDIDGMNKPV
For experiment [6], the target named is Transient receptor potential cation channel subfamily V member 1 (Homo sapiens, UniProt Q8NER1). The experiment is described as follows: TRP selectivity screen (TRPV1).
Transient receptor potential cation channel subfamily V member 1, sequence (Q8NER1 whole entry): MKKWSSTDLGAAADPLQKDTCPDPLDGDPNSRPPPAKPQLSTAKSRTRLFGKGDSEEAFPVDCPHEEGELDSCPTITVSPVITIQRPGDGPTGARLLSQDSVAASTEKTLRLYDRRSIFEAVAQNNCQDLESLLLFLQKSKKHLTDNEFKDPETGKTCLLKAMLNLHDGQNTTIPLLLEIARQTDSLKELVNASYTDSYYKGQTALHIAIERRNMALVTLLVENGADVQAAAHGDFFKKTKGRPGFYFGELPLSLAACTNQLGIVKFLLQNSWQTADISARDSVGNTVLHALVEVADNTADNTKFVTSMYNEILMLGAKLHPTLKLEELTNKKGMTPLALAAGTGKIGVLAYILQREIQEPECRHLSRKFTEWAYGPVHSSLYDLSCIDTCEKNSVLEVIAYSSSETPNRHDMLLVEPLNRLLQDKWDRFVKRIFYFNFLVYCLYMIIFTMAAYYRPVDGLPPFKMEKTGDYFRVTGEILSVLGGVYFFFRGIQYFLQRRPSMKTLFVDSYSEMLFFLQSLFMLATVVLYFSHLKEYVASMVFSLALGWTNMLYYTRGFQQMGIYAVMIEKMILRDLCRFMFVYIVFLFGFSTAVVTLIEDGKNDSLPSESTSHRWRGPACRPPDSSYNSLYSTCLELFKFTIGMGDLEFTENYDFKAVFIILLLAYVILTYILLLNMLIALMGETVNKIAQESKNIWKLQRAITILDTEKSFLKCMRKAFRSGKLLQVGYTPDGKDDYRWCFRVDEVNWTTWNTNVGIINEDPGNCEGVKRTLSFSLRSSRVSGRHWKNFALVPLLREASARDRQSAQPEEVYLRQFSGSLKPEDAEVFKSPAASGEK
Experiment [7] deals with D(3) dopamine receptor (Homo sapiens) (UniProt P35462). The conditions noted are these: Compound concentration 10.0 uM.
D(3) dopamine receptor (Homo sapiens), sequence (P35462 whole entry): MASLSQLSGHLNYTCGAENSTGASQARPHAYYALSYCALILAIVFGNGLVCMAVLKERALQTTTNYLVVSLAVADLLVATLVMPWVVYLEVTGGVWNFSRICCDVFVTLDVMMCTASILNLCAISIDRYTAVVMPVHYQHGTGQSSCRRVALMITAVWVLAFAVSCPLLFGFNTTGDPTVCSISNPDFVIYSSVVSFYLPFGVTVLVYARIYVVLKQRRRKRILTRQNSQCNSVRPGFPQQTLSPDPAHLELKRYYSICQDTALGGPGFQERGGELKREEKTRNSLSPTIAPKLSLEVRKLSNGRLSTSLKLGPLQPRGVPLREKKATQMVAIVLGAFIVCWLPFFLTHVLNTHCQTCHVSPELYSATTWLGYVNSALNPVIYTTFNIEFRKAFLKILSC
Experiment [8] concerns the target T1, Alpha-2C adrenergic receptor (Homo sapiens) (UniProt P18825).
T1 sequence (whole entry): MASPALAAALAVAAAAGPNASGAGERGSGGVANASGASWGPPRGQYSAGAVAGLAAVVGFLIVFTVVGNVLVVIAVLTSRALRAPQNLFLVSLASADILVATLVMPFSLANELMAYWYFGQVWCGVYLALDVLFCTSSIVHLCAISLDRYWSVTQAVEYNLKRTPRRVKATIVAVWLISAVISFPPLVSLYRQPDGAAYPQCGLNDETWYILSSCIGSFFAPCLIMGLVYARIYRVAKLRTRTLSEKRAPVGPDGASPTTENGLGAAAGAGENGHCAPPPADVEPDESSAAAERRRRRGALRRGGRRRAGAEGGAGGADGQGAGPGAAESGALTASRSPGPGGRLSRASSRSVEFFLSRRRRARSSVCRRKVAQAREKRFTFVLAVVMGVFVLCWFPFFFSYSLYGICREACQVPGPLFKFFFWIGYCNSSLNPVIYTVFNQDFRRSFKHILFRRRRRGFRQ
The conditions noted are these: Compound concentration 10.0 uM.

Experiment [9] concerns the target 5-hydroxytryptamine receptor 3A (Homo sapiens) (UniProt P46098). The conditions noted are these: Compound concentration 10.0 uM.
In experiment [10] the target is T2, Muscarinic acetylcholine receptor M2 (Homo sapiens) (UniProt P08172).
T2 sequence (whole entry): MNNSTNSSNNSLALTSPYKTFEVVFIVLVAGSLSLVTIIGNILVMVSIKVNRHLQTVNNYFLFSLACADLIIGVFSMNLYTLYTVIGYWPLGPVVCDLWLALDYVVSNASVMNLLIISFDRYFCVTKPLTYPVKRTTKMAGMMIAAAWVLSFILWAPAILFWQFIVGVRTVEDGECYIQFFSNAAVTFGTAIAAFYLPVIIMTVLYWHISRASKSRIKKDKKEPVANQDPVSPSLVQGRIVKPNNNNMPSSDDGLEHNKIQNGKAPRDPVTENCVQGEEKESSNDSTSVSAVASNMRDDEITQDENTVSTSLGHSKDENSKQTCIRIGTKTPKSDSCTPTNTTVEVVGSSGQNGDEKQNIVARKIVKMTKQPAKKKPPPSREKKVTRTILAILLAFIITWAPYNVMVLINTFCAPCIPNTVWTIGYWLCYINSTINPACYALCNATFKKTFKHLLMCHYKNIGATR
The conditions noted are these: Compound concentration 10.0 uM.

The target in experiment [11] is T3, 5-hydroxytryptamine receptor 1A (Homo sapiens) (UniProt P08908).
T3 sequence (whole entry): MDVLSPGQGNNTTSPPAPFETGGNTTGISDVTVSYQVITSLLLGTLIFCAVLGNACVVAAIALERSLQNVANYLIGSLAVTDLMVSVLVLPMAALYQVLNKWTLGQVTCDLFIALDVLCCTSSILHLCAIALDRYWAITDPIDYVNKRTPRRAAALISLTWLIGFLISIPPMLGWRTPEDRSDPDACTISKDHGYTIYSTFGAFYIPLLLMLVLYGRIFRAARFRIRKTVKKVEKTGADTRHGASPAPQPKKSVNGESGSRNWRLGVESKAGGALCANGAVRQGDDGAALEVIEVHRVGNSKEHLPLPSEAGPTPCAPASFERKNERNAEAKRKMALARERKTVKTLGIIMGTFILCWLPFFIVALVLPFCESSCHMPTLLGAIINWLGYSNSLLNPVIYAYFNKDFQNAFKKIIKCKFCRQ
The conditions noted are these: Compound concentration 10.0 uM.

The target of experiment [12] is Alpha-1D adrenergic receptor (Homo sapiens) (UniProt P25100). The conditions noted are these: Compound concentration 10.0 uM.
Alpha-1D adrenergic receptor (Homo sapiens), sequence (P25100 whole entry): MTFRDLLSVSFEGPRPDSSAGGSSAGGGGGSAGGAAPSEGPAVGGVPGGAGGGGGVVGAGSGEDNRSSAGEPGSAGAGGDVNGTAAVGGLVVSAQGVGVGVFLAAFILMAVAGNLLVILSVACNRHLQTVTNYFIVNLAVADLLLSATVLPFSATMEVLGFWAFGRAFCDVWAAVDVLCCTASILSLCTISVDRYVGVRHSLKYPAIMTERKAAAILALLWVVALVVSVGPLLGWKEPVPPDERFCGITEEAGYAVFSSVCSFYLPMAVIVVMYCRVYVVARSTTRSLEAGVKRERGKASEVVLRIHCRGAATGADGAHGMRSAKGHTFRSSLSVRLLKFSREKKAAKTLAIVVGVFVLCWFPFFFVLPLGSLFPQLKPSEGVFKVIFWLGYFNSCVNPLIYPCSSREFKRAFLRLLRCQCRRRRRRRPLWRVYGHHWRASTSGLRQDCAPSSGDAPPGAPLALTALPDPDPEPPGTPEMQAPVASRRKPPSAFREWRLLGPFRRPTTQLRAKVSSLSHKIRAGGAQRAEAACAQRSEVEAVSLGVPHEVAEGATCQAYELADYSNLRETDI
Experiment [13] deals with Beta-3 adrenergic receptor (Homo sapiens) (UniProt P13945). The conditions noted are these: Compound concentration 10.0 uM.
Beta-3 adrenergic receptor (Homo sapiens), sequence (P13945 whole entry, looked up): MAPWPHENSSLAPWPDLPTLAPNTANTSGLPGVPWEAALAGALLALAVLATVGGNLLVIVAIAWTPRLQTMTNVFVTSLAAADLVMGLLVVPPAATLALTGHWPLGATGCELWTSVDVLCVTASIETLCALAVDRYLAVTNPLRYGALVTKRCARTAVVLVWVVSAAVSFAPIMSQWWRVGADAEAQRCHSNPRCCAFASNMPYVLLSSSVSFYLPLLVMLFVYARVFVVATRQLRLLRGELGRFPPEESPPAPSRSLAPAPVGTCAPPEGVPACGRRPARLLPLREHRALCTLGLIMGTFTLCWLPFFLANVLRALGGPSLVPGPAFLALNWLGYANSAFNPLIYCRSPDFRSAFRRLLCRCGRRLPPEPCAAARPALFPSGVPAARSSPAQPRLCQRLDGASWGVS
For experiment [14], the target named is T4, Muscarinic acetylcholine receptor M4 (Homo sapiens) (UniProt P08173).
T4 sequence (whole entry): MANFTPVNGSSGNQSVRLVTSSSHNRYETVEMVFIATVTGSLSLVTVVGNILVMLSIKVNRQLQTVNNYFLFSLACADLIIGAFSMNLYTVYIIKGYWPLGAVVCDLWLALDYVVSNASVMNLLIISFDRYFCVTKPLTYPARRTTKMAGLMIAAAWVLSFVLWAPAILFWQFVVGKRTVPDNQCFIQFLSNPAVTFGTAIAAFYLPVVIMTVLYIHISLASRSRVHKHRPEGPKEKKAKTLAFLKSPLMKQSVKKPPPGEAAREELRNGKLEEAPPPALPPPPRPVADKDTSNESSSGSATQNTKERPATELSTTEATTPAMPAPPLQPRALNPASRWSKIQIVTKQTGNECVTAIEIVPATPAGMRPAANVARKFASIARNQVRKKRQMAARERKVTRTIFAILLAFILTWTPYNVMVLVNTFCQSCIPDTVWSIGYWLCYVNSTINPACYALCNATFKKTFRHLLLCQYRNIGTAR
The conditions noted are these: Compound concentration 10.0 uM.

Experiment [15] has as its target Transient receptor potential cation channel subfamily V member 4 (Homo sapiens, UniProt Q9HBA0). The experiment is described as follows: TRP selectivity screen (TRPV4).

Histamine H1 receptor (Homo sapiens), sequence (P35367 whole entry): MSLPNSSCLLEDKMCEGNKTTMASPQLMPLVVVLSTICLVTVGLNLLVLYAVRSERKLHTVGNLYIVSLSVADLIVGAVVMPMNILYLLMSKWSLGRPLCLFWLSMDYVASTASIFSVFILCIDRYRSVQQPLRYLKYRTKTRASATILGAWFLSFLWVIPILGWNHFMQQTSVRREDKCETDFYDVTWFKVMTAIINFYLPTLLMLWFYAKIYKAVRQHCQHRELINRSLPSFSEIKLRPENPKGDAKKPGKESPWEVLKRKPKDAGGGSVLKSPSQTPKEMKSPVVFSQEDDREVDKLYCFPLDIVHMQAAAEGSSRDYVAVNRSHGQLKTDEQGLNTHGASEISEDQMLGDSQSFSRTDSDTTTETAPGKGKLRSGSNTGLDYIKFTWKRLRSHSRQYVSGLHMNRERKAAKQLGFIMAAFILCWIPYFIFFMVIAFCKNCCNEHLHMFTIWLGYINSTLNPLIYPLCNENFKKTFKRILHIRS
Muscarinic acetylcholine receptor M3 (Homo sapiens), sequence (P20309 whole entry, looked up): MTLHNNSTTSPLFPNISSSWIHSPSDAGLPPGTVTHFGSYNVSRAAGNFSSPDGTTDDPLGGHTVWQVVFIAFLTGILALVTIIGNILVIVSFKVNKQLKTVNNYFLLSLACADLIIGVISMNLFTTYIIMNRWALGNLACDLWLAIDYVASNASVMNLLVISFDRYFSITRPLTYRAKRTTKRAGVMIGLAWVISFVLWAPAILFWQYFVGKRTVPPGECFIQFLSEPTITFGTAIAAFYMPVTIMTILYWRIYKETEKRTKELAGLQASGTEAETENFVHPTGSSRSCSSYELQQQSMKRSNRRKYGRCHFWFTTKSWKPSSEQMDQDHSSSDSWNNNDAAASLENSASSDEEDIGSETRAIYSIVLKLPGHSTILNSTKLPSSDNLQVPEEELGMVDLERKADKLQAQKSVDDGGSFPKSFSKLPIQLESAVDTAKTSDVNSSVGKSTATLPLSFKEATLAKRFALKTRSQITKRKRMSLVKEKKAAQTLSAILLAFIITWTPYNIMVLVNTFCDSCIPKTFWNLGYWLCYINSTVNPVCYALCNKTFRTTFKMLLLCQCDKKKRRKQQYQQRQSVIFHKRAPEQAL
5-hydroxytryptamine receptor 3A (Homo sapiens), sequence (P46098 whole entry): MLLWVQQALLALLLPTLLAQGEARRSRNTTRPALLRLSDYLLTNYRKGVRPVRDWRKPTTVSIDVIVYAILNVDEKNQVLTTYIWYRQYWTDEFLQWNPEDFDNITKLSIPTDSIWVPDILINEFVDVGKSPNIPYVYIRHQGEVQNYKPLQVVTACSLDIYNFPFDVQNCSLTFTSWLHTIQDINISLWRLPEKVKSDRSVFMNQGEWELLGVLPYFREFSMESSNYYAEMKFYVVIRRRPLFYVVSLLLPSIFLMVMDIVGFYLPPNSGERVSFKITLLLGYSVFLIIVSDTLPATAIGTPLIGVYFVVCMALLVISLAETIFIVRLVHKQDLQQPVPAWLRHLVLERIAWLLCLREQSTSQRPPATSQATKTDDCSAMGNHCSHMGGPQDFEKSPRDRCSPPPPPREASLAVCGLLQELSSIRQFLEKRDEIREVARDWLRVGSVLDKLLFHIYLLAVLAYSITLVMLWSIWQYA
Sigma intracellular receptor 2 (Homo sapiens), sequence (Q5BJF2 whole entry): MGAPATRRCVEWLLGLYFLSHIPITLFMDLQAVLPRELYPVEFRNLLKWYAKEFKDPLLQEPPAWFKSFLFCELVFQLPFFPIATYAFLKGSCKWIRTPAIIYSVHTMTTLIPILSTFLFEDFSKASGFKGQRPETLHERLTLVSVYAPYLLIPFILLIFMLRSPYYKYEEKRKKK
Mu-type opioid receptor (Homo sapiens), sequence (P35372 whole entry): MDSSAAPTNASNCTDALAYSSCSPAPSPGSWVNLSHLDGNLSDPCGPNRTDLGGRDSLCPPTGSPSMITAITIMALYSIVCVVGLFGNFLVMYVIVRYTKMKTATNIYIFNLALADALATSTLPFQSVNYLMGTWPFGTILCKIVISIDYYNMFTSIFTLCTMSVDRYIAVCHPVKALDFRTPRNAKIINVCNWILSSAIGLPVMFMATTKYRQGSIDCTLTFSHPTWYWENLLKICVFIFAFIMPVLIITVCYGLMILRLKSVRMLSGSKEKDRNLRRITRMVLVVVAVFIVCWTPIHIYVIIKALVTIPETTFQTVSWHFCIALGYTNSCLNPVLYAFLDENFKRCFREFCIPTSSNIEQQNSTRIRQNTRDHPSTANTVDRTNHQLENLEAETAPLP

As usually defined, the inhibition is the change of the read-out against control, counted positive when it falls. A word on the IC50: it is the concentration needed to halve the response being measured. Lower therefore signals greater potency. For `O[C@]1(C(F)(F)F)CCCC[C@H]1Nc1ccc(F)cc1` [BAY-390], the inhibition in experiment [1] was 4.73%; in experiment [2], 6.05%; in experiment [3], 25.7%; in experiment [4], 8.95%; in [5] it was 9.94%; in [7], -6.61%. Also, the inhibition is 4.19% in experiment [8]; 39% in experiment [9]; -2.71% in [10]; -1.95% in experiment [11]; -2.73% in experiment [12]; 31% in [13]. In experiment [14], the inhibition was 13.9%. The IC50 in experiment [6] and in [15] was > 25 µM (not active) in each case.
Take `COc1cc(N[C@@H]2CCCC[C@]2(O)C(F)(F)F)ccc1F` [BAY-9897]: the inhibition in experiment [1] is 25.6%; in [2], 10.3%; in experiment [3] it was -8.03%; in experiment [4], 27.8%; in experiment [5], 10.5%; in experiment [7] it was -0.75%. In addition, the inhibition was -3.92% in [8]; 11.6% in [9]; 3.81% in [10]; 6.99% in [11]; -4.64% in experiment [12]; 34.2% in experiment [13]. For the same molecule, the inhibition in [14] was -3.95%. Besides, the IC50 in experiment [6] and in experiment [15] was > 25 µM (not active) in each case.
